Laboratory results from BindingDB's records for doi:10.1016/j.bmc.2021.116220 (University of Colorado Anschutz Medical Campus, 2021).

Experiment: Inhibition of RSK2 in human MOLM-13 assessed as reduction in cell viability measured after 72 hrs by MTS assay

Question: With `COC(=O)CCCc1ccc(-n2cnc3cnc(Nc4cc(F)c(O)c(F)c4)nc32)cc1` as the compound, how does the EC50 read?
Answer: 13900 nM

Question: Which EC50 does the source give for `CN1CCN(c2ccc(-n3ccc4cnc(Nc5cc(F)c(O)c(F)c5)nc43)cc2)CC1` here?
Answer: 70 nM

Question: Which EC50 does the source give for `Oc1c(F)cc(Nc2ncc3ncn(-c4ccc(CCN5CCOCC5)cc4)c3n2)cc1F` here?
Answer: 1900 nM

Question: With `CC(C)CCn1cnc2cnc(Nc3cc(F)c(O)c(F)c3)nc21` as the compound, how does the EC50 read?
Answer: 970 nM

Question: With `Oc1c(F)cc(Nc2ncc3ccn(-c4ccc(N5CCOCC5)cc4)c3n2)cc1F` as the compound, how does the EC50 read?
Answer: 230 nM

Question: Which EC50 does the source give for `CC(C)CCn1ccc2cnc(Nc3cc(F)c(O)c(F)c3)nc21` here?
Answer: 1300 nM
